The results in this text go back to patent EP3884941A1, “INFLAMMASOME INHIBITORS AND USE THEREOF” (CENTRO DE INVESTIGACION PRINCIPE FELIPE, priority 2020, dated 2021).

SMILES strings stand for the structures. Where two headings read alike, the source gives them in different places.

As usually defined, the IC50 is the concentration at which inhibition is half-maximal.

The assay has as its target T1, ASC-mediated PC1 activation (Homo sapiens, UniProt P29466).
T1 construct: His; made in house; host or cells: PC1: Sf9 insect cells (baculovirus)
T1 sequence (P29466 1-404): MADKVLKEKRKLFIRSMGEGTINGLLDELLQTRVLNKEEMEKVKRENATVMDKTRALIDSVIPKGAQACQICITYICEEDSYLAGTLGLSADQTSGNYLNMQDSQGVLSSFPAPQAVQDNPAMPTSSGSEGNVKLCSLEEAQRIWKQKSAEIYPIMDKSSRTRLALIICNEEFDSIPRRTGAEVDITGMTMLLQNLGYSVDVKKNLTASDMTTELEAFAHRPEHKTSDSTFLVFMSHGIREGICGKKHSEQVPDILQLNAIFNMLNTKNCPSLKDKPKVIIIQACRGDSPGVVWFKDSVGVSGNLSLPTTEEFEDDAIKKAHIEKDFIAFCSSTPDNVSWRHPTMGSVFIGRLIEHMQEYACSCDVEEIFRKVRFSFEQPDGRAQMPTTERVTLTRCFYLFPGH
Put plainly: ASC-mediated PC1 reconstitution in vitro assay (primary screening). In kind it is biochemical. The method, then: Recombinant PC1 (50 nM) was preincubated with the indicated concentrations of compounds for 20 min at RT in Assay Buffer (20 mM HEPES pH 7.5, 10 mM KCI, 1.5 mM MgCl2, 1mM EDTA, 1 mM EGTA, 1 mM DTT). Then 300 nM of ASC were added and incubated for another 10 min period. Caspase-1 activation was measured using fluorogenic substrate Ac-WEHD-AFC (80 µM; Enzo Life Sciences) by continuously monitoring the release of the AFC (7-Amino-4-trifluoromethylcoumarin) product in a Wallac Victor workstation. The compounds were initially tested at 20 µM with 1% of DMSO. Data are reported as the percentage of inhibition compared with the absence of the compound.
The materials and methods employed in these experiments are now described.

On to `C=CCN1C(=O)/C(=C2/C(=O)Nc3ccccc32)SC1=S` [MM01], for which the IC50 reads like this: (PC1 50 nM, ASC 300 nM, substrate Ac-WEHD-AFC, read-out: IC50) 500 ± 100 nM; (dose-response curve 0.04 to 40 µM (Figure 1B), stated in words) “in the nanomolar range”. In addition, under “immunoblotting of PC1 processing (Figure 1C)”, the “formation of p20 subunit” value is listed as “decrease”.
